Our source for the TGI values is PubChem BioAssay (NCI).

Among the test systems are OVCAR-8 ovarian; HT29 colon; K-562 leukemia; COLO 205 colon; DU-145 prostate; NCI-H460 lung; MDA-MB-231 breast; SK-OV-3 ovarian; BT-549 breast; T-47D breast; NCI/ADR-RES ovarian; HCT-15 colon; MOLT-4 leukemia; UO-31 renal; A549 NSCLC; SNB-75 CNS; 786-0 renal; KM12 colon; SF-539 CNS.
What all share (experiment): growth of human tumour cells (NCI), 48 h

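1) Cells in 96-well plates. 2) Compound, 48 h, 5 concentrations. 3) Linear interpolation between surrounding doses. 4) Unreached endpoint = highest concentration. TGI marks complete inhibition of growth.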

With `CC(=O)OCc1cc(OC(C)=O)c2cc3c(OC(C)=O)cccc3c(OC(C)=O)c2c1`, the TGI with OVCAR-8 ovarian was 35.4 µM; with HT29 colon, 43.9 µM; in the assay with K-562 leukemia, over 100 µM; in the assay on COLO 205 colon, over 100 µM; in the assay with DU-145 prostate it was 43.5 µM; with NCI-H460 lung, 23.8 µM. Moreover, the TGI in the assay on MDA-MB-231 breast came to 58.9 µM; in the assay on SK-OV-3 ovarian, 41.1 µM; with BT-549 breast, 49.6 µM; in the assay on T-47D breast it was 51.3 µM; in the assay with NCI/ADR-RES ovarian, 43.4 µM; with HCT-15 colon, 31.1 µM. Also, the TGI in the assay with MOLT-4 leukemia is over 100 µM; in the assay with UO-31 renal, 41.2 µM; in the assay with A549 NSCLC, 30.9 µM; with SNB-75 CNS, 45.2 µM; with 786-0 renal, 34.4 µM.
Consider `CC1NC(=O)c2c(-c3ccccc3)nn(-c3ccccc3)c2NC1=O` (stereo unspecified), for which the TGI in the assay on OVCAR-8 ovarian, in the assay on HT29 colon, in the assay with K-562 leukemia, in the assay on COLO 205 colon, in the assay with DU-145 prostate and in the assay with NCI-H460 lung was over 100 µM in each case. Besides, the TGI with MDA-MB-231 breast, in the assay with SK-OV-3 ovarian, with BT-549 breast, with T-47D breast, in the assay with NCI/ADR-RES ovarian and in the assay on HCT-15 colon was over 100 µM each time. Besides, the TGI in the assay with MOLT-4 leukemia, in the assay on UO-31 renal, with KM12 colon, with A549 NSCLC, in the assay on SNB-75 CNS and in the assay with 786-0 renal was over 100 µM each time.
Turning to `CCc1nc2c(n1CC)C(=O)c1ccccc1C2=O`, the TGI with OVCAR-8 ovarian was over 100 µM; in the assay with HT29 colon it was 63.9 µM; with K-562 leukemia it was over 100 µM; in the assay with COLO 205 colon, 43.4 µM; in the assay on DU-145 prostate, over 100 µM; with NCI-H460 lung, over 100 µM. The TGI in the assay on SF-539 CNS is over 100 µM; in the assay on MDA-MB-231 breast it was 49.4 µM; in the assay with BT-549 breast, over 100 µM; in the assay on T-47D breast, 57 µM; in the assay on NCI/ADR-RES ovarian, over 100 µM; with HCT-15 colon it was over 100 µM. In addition, the TGI in the assay on MOLT-4 leukemia, with KM12 colon, with A549 NSCLC, in the assay on SNB-75 CNS and with 786-0 renal was over 100 µM each time.
Turning to `CNc1cccc(-c2cc(=O)c3cc4c(cc3[nH]2)OCO4)c1`, the TGI in the assay on HT29 colon was 2.71 µM; in the assay with K-562 leukemia, over 19 µM; with COLO 205 colon, 0.63 µM; in the assay with DU-145 prostate it was 8.87 µM; in the assay with NCI-H460 lung, over 100 µM; in the assay with SF-539 CNS, 0.573 µM. Moreover, the TGI with MDA-MB-231 breast is 4.52 µM; in the assay on SK-OV-3 ovarian, 1.07 µM; in the assay with BT-549 breast it was over 100 µM; in the assay with T-47D breast, over 100 µM; in the assay on NCI/ADR-RES ovarian it was 0.568 µM; in the assay on HCT-15 colon it was 3.66 µM. In addition, the TGI in the assay on MOLT-4 leukemia was over 20.9 µM; in the assay on UO-31 renal it was over 50.8 µM; in the assay on KM12 colon, over 24.7 µM; in the assay on A549 NSCLC it was over 91.8 µM; in the assay on 786-0 renal, over 100 µM.
On to `Cc1ccc(C2=NN=C3C(c4ccccc4)=Nc4ccccc4N3C2)cc1`, for which the TGI in the assay on OVCAR-8 ovarian is over 100 µM; in the assay with HT29 colon, over 81.1 µM; in the assay on K-562 leukemia it was over 100 µM; in the assay with COLO 205 colon, over 100 µM; in the assay on DU-145 prostate, 32.3 µM; in the assay with NCI-H460 lung, 18.6 µM. Also, the TGI in the assay with SF-539 CNS was over 100 µM; in the assay on MDA-MB-231 breast, over 100 µM; in the assay with SK-OV-3 ovarian, 85.7 µM; in the assay with BT-549 breast, over 100 µM; with T-47D breast, over 100 µM; in the assay with NCI/ADR-RES ovarian it was over 100 µM. Besides, the TGI in the assay on HCT-15 colon is over 100 µM; with MOLT-4 leukemia, over 35.5 µM; with UO-31 renal it was over 42 µM; with KM12 colon, over 100 µM; in the assay with A549 NSCLC it was over 100 µM; with 786-0 renal it was over 50.7 µM.
Regarding `CO[C@@H]1C[C@H]2[C@@H]3CC[C@H]([C@@H](C)COC(C)=O)[C@@]3(C)CC[C@@H]2[C@@]2(C)CC[C@H]3C[C@]312`, the TGI in the assay on OVCAR-8 ovarian was found to be 24.7 µM; in the assay with HT29 colon, 19.9 µM; with K-562 leukemia, 27.7 µM; with COLO 205 colon, 20.2 µM; in the assay with DU-145 prostate it was 27.8 µM; with NCI-H460 lung, 23.4 µM. In addition, the TGI in the assay on SF-539 CNS was determined as 37.3 µM; in the assay on MDA-MB-231 breast, 24.3 µM; in the assay on BT-549 breast, 27.2 µM; in the assay on T-47D breast, 31.1 µM; with NCI/ADR-RES ovarian, 30.4 µM; in the assay on HCT-15 colon, 27 µM. Besides, the TGI in the assay on MOLT-4 leukemia worked out at 32.3 µM; with UO-31 renal it was 32.4 µM; with KM12 colon, 23.2 µM; in the assay with A549 NSCLC, 37.3 µM; with SNB-75 CNS it was 33.5 µM; in the assay on 786-0 renal it was 30.8 µM.
As for `Cc1ccc(C)n1-n1c(Cc2ccc(Cl)cc2)n[nH]c1=O`, the TGI in the assay with OVCAR-8 ovarian, in the assay on HT29 colon, in the assay with K-562 leukemia, with COLO 205 colon, in the assay with DU-145 prostate and in the assay on NCI-H460 lung was over 100 µM in each case. Moreover, the TGI in the assay with MDA-MB-231 breast, with SK-OV-3 ovarian, in the assay on BT-549 breast, in the assay on T-47D breast, with NCI/ADR-RES ovarian and in the assay on HCT-15 colon was over 100 µM in each case. Moreover, the TGI with MOLT-4 leukemia, in the assay on UO-31 renal, in the assay with KM12 colon, with A549 NSCLC, with SNB-75 CNS and with 786-0 renal was over 100 µM each time.
As to `O=c1[nH]ncc2[nH]c(-c3ccccc3)cc12`, the TGI with OVCAR-8 ovarian, in the assay on HT29 colon, in the assay with K-562 leukemia, in the assay with COLO 205 colon, with DU-145 prostate and in the assay with NCI-H460 lung was over 100 µM each time. Besides, the TGI in the assay with MDA-MB-231 breast was over 100 µM; in the assay with SK-OV-3 ovarian, over 100 µM; in the assay on BT-549 breast, over 100 µM; with T-47D breast, over 100 µM; in the assay on NCI/ADR-RES ovarian, 69 µM; with HCT-15 colon, over 100 µM. In addition, the TGI is over 100 µM in the assay with MOLT-4 leukemia; over 100 µM with UO-31 renal; over 100 µM in the assay with KM12 colon; over 100 µM in the assay on A549 NSCLC; 77 µM with SNB-75 CNS; over 100 µM with 786-0 renal.
